{
  "source": "paper PMC6934184",
  "about": "“Selective DNA-PKcs inhibition extends the therapeutic index of localized radiotherapy and chemotherapy” (The Journal of Clinical Investigation, 2019)",
  "key": {"HCT116 parental cells": {"test_system": "HCT116 parental cells", "test": "caspase activity after irradiation", "assay_type": "cell-based, Human", "details": "1 µM, 1 hour prior to 2 Gy; 72 hours", "experimental": "(§1) Supplemental Figure 19. […] Fold […]\n(§2) caspase activity in HCT116 parental and p53 null (-/-) cells 72 hours following pre-treatment with NU5455 (1 µM) or DMSO for 1 hour prior to irradiation (0 or 2 Gy). Fold caspase activity was normalized to cell density determined by SRB staining. Data represent the mean ± SEM from three independent experiments. NS = not significant, **** P < 0.0001 (2-way ANOVA)."}, "[1]": {"test_system": "HCT116 p53 null (-/-) cells", "test": "caspase activity after irradiation", "assay_type": "cell-based, Human", "details": "1 µM, 1 hour prior to 2 Gy; 72 hours", "experimental": "as §1, §2"}},
  "data": [
    {"compound": "CN(C(=O)CN1CCOCC1)c1ccc2sc3c(-c4cccc5c(=O)cc(N6CC7CCC(C6)O7)oc45)cccc3c2c1", "note": "[NU5455]", "values": [
      {"measurement": "radiation-induced apoptosis (fold caspase activity)", "setting": "HCT116 parental cells", "result": "increases radiation-induced apoptosis"},
      {"measurement": "radiation-induced apoptosis (fold caspase activity)", "setting": "[1]", "result": "increases radiation-induced apoptosis"}
    ]}
  ]
}
